Test results: patent publication US11767313B2, “Compounds as nuclear transport modulators and uses thereof” (XWPHARMA LTD., priority 2018, dated 2023)
Where two headings read alike, the source gives them in different places.

Experiments:
A549 = experiment: CellTiter-Glo cell proliferation assay, A549; type: cell-based; conditions: Homo sapiens, 72 hours, Table 1, read-out: Growth inhibition (IC50)
Description: (§1) CellTiter-Glo® Luminescent Cell Viability assay (with Promega CellTiter 96® Luminescent CellTiter-Glo® kit) was used to study the proliferation inhibition by test compounds. Compounds were resuspended in DMSO to make a 25 mM stock suspension. Cells of cancer cell lines or normal tissues were seeded in 96-well plates at 1,500 to 5,000 cells/well overnight. Compounds were 2- or 3-fold diluted serially to obtain 10 concentrations. Then, the drugs were added to the cell wells by Bravo (Agilent) and incubated for 72 hours. The cells were lysed by adding CellTiter-Glo® Reagent (per manufacturer's instructions) and subsequently, the luminescence was read using EnVision® (PerkinElmer).
(§2) The percent of growth was calculated as follows. DMSO-treated cells were employed as vehicle control (High control, HC) and culture medium alone was employed as background (Low control, EC). % growth=100×(Lum sample−Lum EC)/(Lum HC−Lum EC). The ICso was calculated by concentration-response curve fitting using Graphpad Prism.
(§3) Hematological cancer cell lines tested included OCI-AML3, MV-4-11, KG-1, Kasumi-1, K562, THP-1; solid cancer cell lines tested included U87MG, U251, T98G, LN229, A172, H460, H2009, A549; normal cell lines tested included HCN2 and 3T3-L1. […] However, they were not toxic to in vitro cultured normal cells.

HCN2 = experiment: CellTiter-Glo cell proliferation assay, HCN2 (normal brain); type: cell-based
Description: as §1, §2, §3

[1] = Pharmacokinetic profile summary; type: in vivo, mice or rats; conditions: for bioavailability / Kp at 1 h: oral; for bioavailability / half-life: mice or rats; for AUC / Cmax: po; for Kp at 1 h: brain/plasma, read-out: B/P ratio (Cmax time) 10 mpk
Description: Blood was collected from mice (n=3, or 5) to contribute to the total of 10 time points (pre-dose, 5 min, 15 min, 30 min, 1 hour, 2 hours, 4 hours, 8 hours, 12 hours and 24 hours). At the designated time points, animals were anaesthetized under isoflurane, and approximately 110 μL of blood per time point was collected via retro-orbital puncture into pre-cooled K2EDTA tubes. Blood samples were put on wet ice and centrifuged (2000 g, 5 min at 4° C.) to obtain plasma within 30 minutes of sample collection. All samples were stored frozen at approximately −80° C. until analysis. Prior to analysis, samples were mixed with internal standard in acetonitrile, vortexed, centrifuged, and supernatant was injected for analysis. Concentration of compounds in plasma was determined using LC-MS-MS instrumentation (API 4000, Triple Quadrupole LC/MS/MS Mass Spectrometer). AUC values were calculated using Phoenix Win Nonlin 6.3 software package, PO-Noncompartmental model 200 (extravascular input).
Following collection, brain tissue was rinsed with cold saline, dried on filter paper, weighed and snap-frozen by placing on dry ice. All samples were stored frozen at approximately −80° C. until analysis. At the time of analysis, brain tissue was homogenized (homogenizing solution PBS, pH 7.4), mixed with internal standard in acetonitrile, vortexed, centrifuged, and supernatant was injected for analysis. Concentration of compounds in plasma was determined using LC-MS-MS instrumentation (API 4000, Triple Quadrupole LC/MS/MS Mass Spectrometer). Plasma samples were treated with the identical method (except homogenization step) and the concentration of compound in each matrix was calculated based on generated standard curves.
The pharmacokinetic profile of test compounds in mice or rats was determined from several test compounds was determined using the methods described in Example 22.

T98G = experiment: CellTiter-Glo cell proliferation assay, T98G; type: cell-based; conditions: Homo sapiens, T98G
Description: as §1, §2, §3

XPO1 = XPO1 (Homo sapiens, UniProt O14980); experiment: REV-GFP translocation assay in U2OS cells; type: cell-based; parameters: endogenous in cells; host or cells: U2OS cells stably expressing REV-GFP (clones from HD Biosciences); conditions: for IC50: Table 10
How it was run: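 U2OS REV-GFP cells treated for 1 h at 37° C with compounds (top concentration 10 μM, serially diluted), with LMB (top 50 nM) as positive control. Fixed in 4% formaldehyde, Hoechst-stained, and imaged by high-content imaging (20×). % effect of REV nuclear translocation normalised to 50 nM LMB and vehicle signals.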

U87MG = experiment: CellTiter-Glo cell proliferation assay, U87MG; type: cell-based, human; conditions: for IC50: Homo sapiens, U-87 MG
How it was run: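 Cells were seeded at 1,500–5,000 per well overnight, then exposed for 72 h to a 10-point 2- or 3-fold compound dilution series. Viability was read by CellTiter-Glo luminescence as % growth relative to DMSO (high) and medium-only (low) controls. IC50 came from concentration-response curve fitting.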

LN-229 = experiment: CellTiter-Glo cell proliferation assay, LN-229; type: cell-based; conditions: Homo sapiens, LN-229
Description: as §1, §2, §3

U251 = experiment: CellTiter-Glo cell proliferation assay, U251; type: cell-based; conditions: Homo sapiens, U-251
Description: as §1, §2, §3

[2] = 72 h, HCN2 normal cell line, 72 hours, Table 1, read-out: Growth inhibition (IC50)
[3] = 10 mg/kg, plasma, 10 mpk, read-out: Cmax (ng/ml) plasma/10 mpk
[4] = Table 11, read-out: Absolute IC50 (μM) T98G
[5] = REV-EGFP U2OS cells, 1 h, Table 2, read-out: Rev-GFP/EC50
[6] = first (or only) value of the cell
[7] = Table 13, read-out: Rev-GFP assay/μM
[8] = 72 h, U87MG, 72 hours, Table 1, read-out: Growth inhibition (IC50)
[9] = Table 9, first value column, read-out: U87MG IC50
[10] = Table 9, second value column, read-out: U87MG IC50
[11] = Table 11, read-out: Absolute IC50 (μM) LN-229
[12] = Table 11, read-out: Absolute IC50 (μM) U251
[13] = 72 hours, Table 1, read-out: Growth inhibition (IC50)

Chain of XPO1 (O14980 whole entry): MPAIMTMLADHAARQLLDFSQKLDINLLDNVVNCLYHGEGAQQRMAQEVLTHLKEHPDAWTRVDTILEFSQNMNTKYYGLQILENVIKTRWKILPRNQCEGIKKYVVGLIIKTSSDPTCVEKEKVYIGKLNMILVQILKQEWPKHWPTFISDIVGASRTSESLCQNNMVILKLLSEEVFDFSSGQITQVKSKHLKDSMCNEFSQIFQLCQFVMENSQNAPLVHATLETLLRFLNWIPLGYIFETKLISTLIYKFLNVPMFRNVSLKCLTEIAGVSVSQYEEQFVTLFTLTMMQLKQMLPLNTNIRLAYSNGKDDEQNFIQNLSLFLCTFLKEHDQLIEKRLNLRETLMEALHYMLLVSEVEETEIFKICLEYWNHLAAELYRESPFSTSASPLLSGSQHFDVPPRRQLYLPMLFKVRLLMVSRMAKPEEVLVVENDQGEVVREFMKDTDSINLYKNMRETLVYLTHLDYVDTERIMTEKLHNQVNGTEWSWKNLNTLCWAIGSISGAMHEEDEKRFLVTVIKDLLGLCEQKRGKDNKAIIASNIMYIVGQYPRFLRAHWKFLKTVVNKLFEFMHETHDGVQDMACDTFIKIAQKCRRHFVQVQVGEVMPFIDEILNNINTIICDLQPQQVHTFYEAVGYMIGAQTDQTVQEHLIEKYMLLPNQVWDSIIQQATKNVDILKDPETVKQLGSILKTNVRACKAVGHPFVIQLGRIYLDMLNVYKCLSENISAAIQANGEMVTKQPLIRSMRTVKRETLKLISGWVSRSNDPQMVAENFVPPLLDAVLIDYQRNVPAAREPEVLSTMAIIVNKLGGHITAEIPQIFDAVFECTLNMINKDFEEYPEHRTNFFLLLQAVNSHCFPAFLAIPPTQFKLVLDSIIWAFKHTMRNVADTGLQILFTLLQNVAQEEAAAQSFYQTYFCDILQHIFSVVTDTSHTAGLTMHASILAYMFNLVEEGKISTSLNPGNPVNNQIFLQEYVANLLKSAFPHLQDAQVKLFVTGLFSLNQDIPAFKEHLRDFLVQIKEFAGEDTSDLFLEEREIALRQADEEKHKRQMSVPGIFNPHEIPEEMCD

Row | Structure (SMILES) | IC50 (HCN2; [2]) [µM] | IC50 (HCN2; Table 9, read-out: HCN2 IC50) [µM] | bioavailability ([1]; plasma) [%] | AUC ([1]; plasma, 10 mg/kg, 10 mpk) [ng·h/mL] | half-life ([1]; plasma) [min] | Cmax [1, 3] [ng/mL] | Kp at 1 h ([1]; rat, 10 mg/kg) | IC50 (T98G; [4]) [µM] | EC50 (XPO1; [5]) [µM] | IC50 (XPO1; [6]) [nM] | IC50 (XPO1; second value of the cell) [nM] | EC50 (XPO1; [7]) [µM] | IC50 (U87MG; [8]) [nM] | IC50 (U87MG; [9]) [nM] | IC50 (U87MG; [10]) [nM] | IC50 (LN-229; [11]) [µM] | IC50 (U251; [12]) [µM] | other results
1 | O=C(/C=C\n1cnc(-c2cc(C(F)(F)F)cc(S(F)(F)(F)(F)F)c2)n1)NNc1cnccn1 [Compound I, (Z)-3-(3-(3-(pentafluorosulfanyl)-5-(trifluoromethyl)phenyl)-1H-1,2,4-triazol-1-yl)-N′-(pyrazin-2-yl)acrylohydrazide] | 25.8 | 25.8 | 98 | 10000 | 282 | 2550 | 0.71 | 1.7 | 0.012 | 16.3 | 7.7 | 0.012 | 592 | 384 | 798 | 0.6 | 1.2 | IC50 (A549): 1490 nM; HCN2 Max % inh (HCN2; Table 8): 22%; IC50 (HCN2; Table 8, read-out: HCN2 IC50): > 50 µM; Cmax ([1]; rat, 10 mg/kg, 10 mpk, first number of Plasma/brain pair, read-out: Cmax/(ng/mL) Plasma): 1890 ng/mL; Cmax ([1]; rat, 10 mg/kg, 10 mpk, second number of Plasma/brain pair, read-out: Cmax/(ng/mL) brain): 1300 ng/mL; IC50 (U87MG; Table 6, read-out: U87MG IC50): 226 nM
2 | CC(C)(C)C(=O)NNC(=O)/C=C\n1cnc(-c2cc(C(F)(F)F)cc(S(F)(F)(F)(F)F)c2)n1 [Compound III, (Z)-3-(3-(3-(Pentafluorosulfanyl)-5-(trifluoromethyl)phenyl)-1H-1,2,4-triazol-1-yl)-N′-pivaloylacrylohydrazide] | > 50 | > 50 | 82 | 13900 | 312 | 1600 | 0.95 | 6.2 | 0.211 | 298 | 125 | 0.21 | 1740 | 1120 | 2360 | 1.8 | 3.8 | Cmax ([1]; 3 mg/kg, 3 mpk, first number of Plasma/brain pair, read-out: Cmax/(ng/mL) Plasma): 1250 ng/mL; Cmax ([1]; 3 mg/kg, 3 mpk, second number of Plasma/brain pair, read-out: Cmax/(ng/mL) brain): 1190 ng/mL; IC50 (T98G; [13]): 6.25 µM; cell viability in REV-GFP assay (XPO1; 1 h, all concentrations tested): no decrease in cell viability; EC90 (XPO1; U2OS, concentration stated as EC90 in washout study, read-out: EC90 (REV-EGFP translocation)): 400 nM; EC50 (XPO1; concentration stated as EC50 in washout study, read-out: EC50 (REV-EGFP translocation)): 0.12 µM; IC50 (U87MG; U87MG, Table 12, read-out: Relative IC50): 200 nM; Max % Inhibition (U87MG; U87MG, Table 12): 46.3%; Bottom (U87MG; U87MG, curve fit, Table 12): −4.2; Hill Slope (U87MG; U87MG, curve fit, Table 12): 3.2; Top (U87MG; U87MG, curve fit, Table 12): 40.2; IC50 (LN-229; [13]): 1.8 µM; IC50 (U251; U251, 72 hours, Table 1, read-out: Growth inhibition (IC50)): 3.77 µM
